Laboratory results published in PMC4657899, “Design, Synthesis and In Vitro Activity of Anticancer Styrylquinolines. The p53 Independent Mechanism of Action” (PLoS ONE, 2015).

Legend:
HCT116 (p53+/+) = assay: MTS anti-proliferative assay, HCT116 (p53+/+); assay type: cell-based, human; details: Homo sapiens, HCT-116, 72 h incubation, mean ± SD
Procedure: (§1) The human colon adenocarcinoma cell line HCT116 along with wild type p53 (p53^+/+) were obtained from the ATCC. The normal human fibroblast cell line GM 07492 and HCT116 with a p53 deletion (p53^-/-) were kindly provided by prof. M. Rusin from Maria Sklodowska-Curie Memorial Cancer Center and Institute of Oncology in Gliwice, Poland. Cells were grown as monolayer cultures in 75 cm^2 flasks (Nunc) in Dulbecco’s modified Eagle’s medium with an antibiotic gentamicin (200 μL/100 mL medium). DMEM for HCT116 were supplemented with 12% heat-inactivated fetal bovine serum (Gibco) and for GM 07492 with 15% fetal bovine serum (Gibco). Cells were cultured under standard conditions at 37°C in a humidified atmosphere at 5% CO2.
(§2) The cells were seeded in 96-well plates 24 h before the addition of the compounds that were tested. The assay was performed following a 72 h incubation with varying concentrations of the agents that were tested. The results were calculated as IC50 values (using GraphPad Prism 5). Each individual compound was tested in triplicate in a single experiment with each experiment being repeated three times. After a 72 h incubation with the compounds that were tested, 20 μL of The CellTiter 96®AQueous One Solution—MTS (Promega) solution was added to each well (with 100 μL DMEM without phenol red) and incubated for 1 h at 37°C. The optical densities of the samples were analyzed at 490 nm. Results were expressed as a percentage of the control.

HCT116 (p53-/-) = assay: MTS anti-proliferative assay, HCT116 (p53-/-); assay type: cell-based, human; details: for IC50: Homo sapiens, HCT-116, MTS, 72 h incubation, mean ± SD
Procedure: as §1, §2

GM 07492 = assay: MTS cytotoxicity assay, normal fibroblasts GM 07492; assay type: cell-based; details: Fibroblast, 72 h incubation, normal human fibroblasts, mean ± SD
Procedure: as §1, §2

PARP in HCT-116 cells = assay: Immunoblotting, PARP cleavage; assay type: cell-based, human; details: 0, 10, 20, 40 μM
Procedure: Specific antibodies were purchased from Sigma-Aldrich (anti-PARP, anti-tubulin and peroxidase-labeled secondary antibodies). Briefly, cellular lysates were prepared by harvesting cells in a Laemmli sample buffer. Proteins were separated on SDS-polyacrylamide gels and electroblotted onto nitrocellulose membranes. After blocking, the membranes were incubated with specific primary antibodies overnight, washed and then incubated with peroxidase-conjugated secondary antibodies. Finally, peroxidase activity was detected with ECL+ reagents (AP Biotech) using a CCD camera LAS-4000 (Fujifilm).

Calf-thymus DNA (CT-DNA) = assay: Spectrophotometric DNA binding (intercalation) study with CT-DNA; details: for % hypochromism: 1.5 h 37°C, Tris-HCl pH 7.9; for % hypochromism / Δε: at the (first) absorption band (CP-31398: 312); for shift of the wavelength of maximum absorption, alone vs DNA-bound / Changes in absorbance: S3 Table; for Changes in absorbance: with CT-DNA
Procedure: For the DNA binding studies, Calf-thymus DNA (CT-DNA) was purchased from Sigma Aldrich. The lyophilized CT-DNA was dissolved in 10 mM Tris-HCl, pH 7.9, mixed gently and left overnight at 4°C. Then, the concentration of CT-DNA was determined from the absorbance at 260 nm using an extinction coefficient of 6600 M^-1cm^-1. […] Afterwards, 18 μM CT-DNA was added to the prepared solutions and were incubated for 1.5 h at 37°C with occasional vortexing. Absorption spectra were measured using a Hitachi U-2900 spectrophotometer in range of 200–600 nm. All absorption spectra were imported and compared in OriginPro 8.0.

[1] = test system: caspase-3 and -7 in HCT116 (p53-/-) cells; assay: Caspase-Glo 3/7 assay, HCT116 (p53-/-); assay type: cell-based, human; details: IC50 concentration, 48 h
Procedure: (§3) To measure caspase-3 and -7 activities, a luminescent Caspase-Glo 3/7 assay was performed. HCT116 (p53^+/+) and (p53^-/-) cells were seeded onto black 96-well plates at a density of 3,500 cells/well. […] After 48 h a Caspase-Glo 3/7 Assay (Promega) was performed according to the manufacturer’s instructions. After adding 100 μL of Caspase3/7 GloReagent, cells were incubated for 2.5 h at room temperature. The luminescence was measured using a multi-plate reader (Synergy 4, Bio Tek) with an integration time of 1 second per well. The experiments were performed in duplicate.

[2] = test system: caspase-3 and -7 in HCT116 (p53+/+) cells; assay: Caspase-Glo 3/7 assay, HCT116 (p53+/+); assay type: cell-based, human; details: IC50 concentration, 48 h, relative to doxorubicin
Procedure: as §3

HCT116 p53-/- cells = test system: HCT116 p53-/- cells; parameters: method as in PMID 12027451; details: cited from earlier work
HCT116 +/+ = assay: Trypan blue staining test, HCT116 +/+; assay type: cell-based, human; details: Homo sapiens, HCT-116; S2 Table, trypan blue cell counting, 72 h
Procedure: (§4) The cells were seeded in 3 cm Petri dishes (Nunc) and incubated at 37°C. After 24h, solutions […]
(§5) a 72 h incubation with tested compounds, the cells were trypsinize d with 0.05% Trypsin -EDTA solution (Sigma). Then, 90µl of suspension cells transferred into 96 -well plate containing 10µl Trypan blue reagent in wells. The cells were counted under an optical inverted microscope Olympus CKX31. The results from three independent experiment were calculated as IC 50 values using GraphPad Prism 5 software.

HCT116 -/- = assay: Trypan blue staining test, HCT116 -/-; assay type: cell-based, human; details: Homo sapiens, HCT-116; S2 Table, trypan blue cell counting, 72 h
Procedure: as §4, §5

colon cancer cells = test system: colon cancer cells; parameters: method as in Arafa et al.; details: ref Arafa et al.; cited from earlier work
P388 cell line = test system: P388 cell line; parameters: method as in PMID 17904844; details: cited from earlier work
SK-N-MC cell line = test system: SK-N-MC cell line; parameters: method as in PMID 17142046; details: cited from earlier work
[3] = 18 μM CT-DNA, CP-31398 absorption band 350

Row | SMILES | IC50 (HCT116 (p53+/+)) | IC50 (HCT116 (p53-/-)) | melting point | IC50 (GM 07492) | also measured
1 | CC(=O)Oc1cccc2ccc(C=Cc3ccccc3F)nc12 [12b] | 12.1 ± 3.02 µM | 5.78 ± 0.78 µM | 117 °C | > 25 µM | times more effective against HCT116 (p53-/-) than against wild type cells (HCT116 (p53-/-); ratio of MTS IC50 values): 2–3 times
2 | COc1cccc(C=Cc2ccc3cccc(O)c3n2)c1 [13b] | 24.6 ± 4.36 µM | 18.4 ± 1.36 µM | – | > 25 µM | –
3 | CC(=O)Oc1ccc(C=Cc2ccc3cccc(OC(C)=O)c3n2)c(OC(C)=O)c1OC(C)=O [14b] | 17.9 ± 1.67 µM | 11.4 ± 1.02 µM | 194 °C | – | –
4 | CCOc1ccccc1C=Cc1ccc2cccc(O)c2n1 [15b, 2 – [2-(2-Ethoxyphenyl)vinyl]quinolin-8-ol] | 15.8 ± 3.32 µM | 12.8 ± 3.53 µM | 100 °C | – | –
5 | CCOc1ccc(C=Cc2ccc3cccc(O)c3n2)cc1 [16b, 2 – [2-(4-Ethoxyphenyl)vinyl]quinolin-8-ol] | > 25 µM | 16.1 ± 4.84 µM | 130 °C | – | –
6 | COc1cccc2c1C(=O)c1c(O)c3c(c(O)c1C2=O)C[C@@](O)(C(=O)CO)C[C@@H]3O[C@H]1C[C@H](N)[C@H](O)[C@H](C)O1 [Doxorubicin] | 5.95 ± 0.5 µM | 1.65 ± 0.21 µM | – | 3.38 ± 1.29 µM | IC50 (HCT116 +/+): 2.83 µM; IC50 (HCT116 -/-): 1.28 µM; % hypochromism (Calf-thymus DNA (CT-DNA); 18 μM CT-DNA): 34.2%; % hypochromism (Calf-thymus DNA (CT-DNA); 18 μM CT-DNA, listed as DOX): 34,2%; Δε (Calf-thymus DNA (CT-DNA); 18 μM CT-DNA): 3235,6 M−1 cm−1; shift of the wavelength of maximum absorption, alone vs DNA-bound (Calf-thymus DNA (CT-DNA); 18 μM CT-DNA): 10; Changes in absorbance (Calf-thymus DNA (CT-DNA)): hypochromism; shift in the wavelength on DNA binding (Calf-thymus DNA (CT-DNA); blue shift for 5b, 6b, red shift for doxorubicin): 10 nm
7 | COc1cc(/C=N/NC(=O)COc2c(Br)cc(Br)c3cccnc23)cnc1O [III] | – | – | – | – | IC50 (colon cancer cells): 4.7 µM
8 | Cc1ccc2c(n1)C(=O)C(NC(=O)/C=C/c1ccccc1)=CC2=O [IV] | – | – | – | – | IC50 (P388 cell line): 1.44 µM
9 | Oc1cccc2ccc(/C=C/c3ccc(Cl)cc3)nc12 [I] | – | – | – | – | IC50 (SK-N-MC cell line): 0.77 µM

Further lines, with some results ahead:

Row | IC50 (HCT116 (p53+/+)) | IC50 (HCT116 (p53-/-)) | melting point | SMILES | IC50 (GM 07492) | also measured
10 | 9.84 ± 1.79 µM | 7.97 ± 3.24 µM | – | Oc1cccc2ccc(C=Cc3ccccc3Cl)nc12 [17b, 2 – [2-(2-Chlorophenyl)vinyl]quinolin-8-ol] | 20.2 ± 6.52 µM | PARP cleavage (PARP in HCT-116 cells): clearly observable
11 | 16.1 ± 0.88 µM | 15.2 ± 1.31 µM | 316 °C | Oc1ccccc1C=Cc1ccc2cccc(O)c2n1 [18b, 2 – [2-(2-Hydroxyphenyl)vinyl]quinolin-8-ol] | – | –
12 | 16.3 µM | 10.6 ± 1.23 µM | – | Oc1cccc(C=Cc2ccc3cccc(O)c3n2)c1 [19b, 2 – [2-(3-Hydroxyphenyl)vinyl]quinolin-8-ol] | – | –
13 | > 25 µM | > 25 µM | 273 °C | Oc1ccc(C=Cc2ccc3cccc(O)c3n2)c(O)c1 [20b, 2 – [2-(2,4-Dihydroxyphenyl)vinyl]quinolin-8-ol] | – | –
14 | 18.6 ± 0.92 µM | 26.3 ± 1.41 µM | – | COc1ccc(/C=C/c2nc(NCCCN(C)C)c3ccccc3n2)cc1 [CP-31398] | 12.3 ± 0.54 µM | % hypochromism (Calf-thymus DNA (CT-DNA); 18 μM CT-DNA): 41,4%; % hypochromism, second absorption band (Calf-thymus DNA (CT-DNA); [3]): 37,4%; Δε, second absorption band (Calf-thymus DNA (CT-DNA); [3]): 1693,3 M−1 cm−1; Δε (Calf-thymus DNA (CT-DNA); 18 μM CT-DNA): 1515,6 M−1 cm−1; shift of the wavelength of maximum absorption, alone vs DNA-bound (Calf-thymus DNA (CT-DNA); 18 μM CT-DNA): 0; Changes in absorbance (Calf-thymus DNA (CT-DNA)): hypochromism; Caspase-3/7 activity in p53-/- cells [1]: did not increase the activity of caspases; Caspase-3/7 activity in wild type cells [2]: two times higher than doxorubicin; activity against HCT116 p53-/- cells versus wild-type (p53+/+) (HCT116 p53-/- cells): several times less active
